Experimental data from ChEMBL document CHEMBL4138123, “Design, synthesis and biological evaluation of novel pyrazolochalcones as potential modulators of PI3K/Akt/mTOR pathway and inducers of apoptosis in breast cancer cells” (Eur J Med Chem, 2017).

What was measured:
TK-10 = test: Cytotoxicity against human TK10 cells assessed as growth inhibition after 48 hrs by sulforhodamine B assay; format: functional; conditions: TK-10, 48 h
CCRF-CEM = test: Cytotoxicity against human CCRF-CEM cells assessed as cell growth at 10 uM after 48 hrs by sulforhodamine B assay relative to control; format: functional; conditions: read-out: Activity
U-251 = test: Cytotoxicity against human U251 cells assessed as cell growth at 0.01 uM after 48 hrs by sulforhodamine B assay relative to control; format: functional; conditions: U-251, 48 h, read-out: Activity
BT-549 [1] = test: Cytotoxicity against human BT549 cells assessed as cell growth at 100 uM after 48 hrs by sulforhodamine B assay relative to control; format: functional; conditions: BT-549, 48 h, read-out: Activity
RPMI-8226 [2] = test: Cytotoxicity against human RPMI8226 cells assessed as cell growth at 100 uM after 48 hrs by sulforhodamine B assay relative to control; format: functional; conditions: RPMI-8226, 48 h, read-out: Activity
NCI-H23 = test: Cytotoxicity against human NCI-H23 cells assessed as growth inhibition after 48 hrs by sulforhodamine B assay; format: functional; conditions: NCI-H23, 48 h; for CC50: read-out: LC50 (the source's name)
A498 [3] = test: Cytotoxicity against human A498 cells assessed as cell growth at 1 uM after 48 hrs by sulforhodamine B assay relative to control; format: functional; conditions: A498, 48 h, read-out: Activity
HT-29 = test: Cytotoxicity against human HT-29 cells assessed as cell growth at 0.01 uM after 48 hrs by sulforhodamine B assay relative to control; format: functional; conditions: HT-29, 48 h, read-out: Activity
HCC 2998 = test: Cytotoxicity against human HCC2998 cells assessed as cell growth at 0.1 uM after 48 hrs by sulforhodamine B assay relative to control; format: functional; conditions: HCC 2998, 48 h, read-out: Activity
NCI-H460 = test: Cytotoxicity against human NCI-H460 cells assessed as cell growth at 10 uM after 48 hrs by sulforhodamine B assay relative to control; format: functional; conditions: NCI-H460, 48 h, read-out: Activity
MOLT-4 = test: Cytotoxicity against human MOLT4 cells assessed as cell growth at 1 uM after 48 hrs by sulforhodamine B assay relative to control; format: functional; conditions: MOLT-4, 48 h, read-out: Activity
UACC-257 [4] = test: Cytotoxicity against human UACC257 cells assessed as cell growth at 0.01 uM after 48 hrs by sulforhodamine B assay relative to control; format: functional; conditions: UACC-257, 48 h, read-out: Activity
SK-MEL-28 = test: Cytotoxicity against human SK-MEL-28 cells assessed as cell growth at 1 uM after 48 hrs by sulforhodamine B assay relative to control; format: functional; conditions: SK-MEL-28, 48 h, read-out: Activity
MDA-MB-231 = test: Cytotoxicity against human MDA-MB-231 cells assessed as cell growth at 100 uM after 48 hrs by sulforhodamine B assay relative to control; format: functional; conditions: MDA-MB-231, 48 h, read-out: Activity
SN12C = test: Cytotoxicity against human SN12C cells assessed as cell growth at 100 uM after 48 hrs by sulforhodamine B assay relative to control; format: functional; conditions: read-out: Activity
Hs-578T = test: Cytotoxicity against human Hs 578T cells assessed as cell growth at 10 uM after 48 hrs by sulforhodamine B assay relative to control; format: functional; conditions: read-out: Activity
BT-549 [5] = test: Cytotoxicity against human BT549 cells assessed as cell growth at 0.01 uM after 48 hrs by sulforhodamine B assay relative to control; format: functional; conditions: BT-549, 48 h, read-out: Activity
NCI-H522 = test: Cytotoxicity against human NCI-H522 cells assessed as cell growth at 100 uM after 48 hrs by sulforhodamine B assay relative to control; format: functional; conditions: NCI-H522, 48 h, read-out: Activity
RPMI-8226 [6] = test: Cytotoxicity against human RPMI8226 cells assessed as cell growth at 1 uM after 48 hrs by sulforhodamine B assay relative to control; format: functional; conditions: RPMI-8226, 48 h, read-out: Activity
SK-MEL-5 = test: Cytotoxicity against human SK-MEL-5 cells assessed as cell growth at 10 uM after 48 hrs by sulforhodamine B assay relative to control; format: functional; conditions: SK-MEL-5, 48 h, read-out: Activity
T47D = test: Cytotoxicity against human T47D cells assessed as cell growth at 1 uM after 48 hrs by sulforhodamine B assay relative to control; format: functional; conditions: read-out: Activity
MCF7 = test: Cytotoxicity against human MCF7 cells assessed as growth inhibition after 48 hrs by MTT assay; format: functional, cell-based; conditions: MCF7, 48 h
SF-539 = test: Cytotoxicity against human SF539 cells assessed as cell growth at 100 uM after 48 hrs by sulforhodamine B assay relative to control; format: functional; conditions: SF-539, 48 h, read-out: Activity
MDA-MB-468 = test: Cytotoxicity against human MDA-MB-468 cells assessed as cell growth at 100 uM after 48 hrs by sulforhodamine B assay relative to control; format: functional; conditions: MDA-MB-468, 48 h, read-out: Activity
UACC-257 [7] = test: Cytotoxicity against human UACC257 cells assessed as cell growth at 10 uM after 48 hrs by sulforhodamine B assay relative to control; format: functional; conditions: UACC-257, 48 h, read-out: Activity
NCI-H226 = test: Cytotoxicity against human NCI-H226 cells assessed as cell growth at 0.1 uM after 48 hrs by sulforhodamine B assay relative to control; format: functional; conditions: NCI-H226, 48 h, read-out: Activity
A498 [8] = test: Cytotoxicity against human A498 cells assessed as cell growth at 0.01 uM after 48 hrs by sulforhodamine B assay relative to control; format: functional; conditions: A498, 48 h, read-out: Activity
IGROV-1 = test: Cytotoxicity against human IGROV1 cells assessed as cell growth at 10 uM after 48 hrs by sulforhodamine B assay relative to control; format: functional; conditions: IGROV-1, 48 h, read-out: Activity
DU-145 = test: Cytotoxicity against human DU145 cells assessed as cell growth at 0.1 uM after 48 hrs by sulforhodamine B assay relative to control; format: functional; conditions: DU-145, 48 h, read-out: Activity
OVCAR-5 = test: Cytotoxicity against human OVCAR5 cells assessed as cell growth at 1 uM after 48 hrs by sulforhodamine B assay relative to control; format: functional; conditions: OVCAR-5, 48 h, read-out: Activity
OVCAR-8 = test: Cytotoxicity against human OVCAR8 cells assessed as growth inhibition after 48 hrs by sulforhodamine B assay; format: functional; conditions: OVCAR-8, 48 h
SR = test: Cytotoxicity against human SR cells assessed as cell growth at 10 uM after 48 hrs by sulforhodamine B assay relative to control; format: functional; conditions: read-out: Activity
OVCAR-3 = test: Cytotoxicity against human OVCAR3 cells assessed as cell growth at 0.1 uM after 48 hrs by sulforhodamine B assay relative to control; format: functional; conditions: OVCAR-3, 48 h, read-out: Activity
SNB-19 = test: Cytotoxicity against human SNB19 cells assessed as cell growth at 100 uM after 48 hrs by sulforhodamine B assay relative to control; format: functional; conditions: SNB-19, 48 h, read-out: Activity
HOP-62 = test: Cytotoxicity against human HOP62 cells assessed as cell growth at 0.1 uM after 48 hrs by sulforhodamine B assay relative to control; format: functional; conditions: HOP-62, 48 h, read-out: Activity

COc1ccc(C(=O)/C=C/c2cc(-c3cc(OC)c(OC)c(OC)c3)n[nH]2)cc1
LC50 (TK-10): > 100 µM | TGI (TK-10): 5.77 µM | growth at 10 µM (CCRF-CEM): -19% | growth at 0.01 µM (U-251): 97% | growth at 100 µM (BT-549 [1]): -49% | growth at 100 µM (RPMI-8226 [2]): -34% | TGI (NCI-H23): 12.2 µM | CC50 (NCI-H23): > 100 µM | growth at 1 µM (A498 [3]): 84% | growth at 0.01 µM (HT-29): 102% | growth at 0.1 µM (HCC 2998): 97% | growth at 10 µM (NCI-H460): -63% | growth at 1 µM (MOLT-4): 102% | growth at 0.01 µM (UACC-257 [4]): 97% | growth at 1 µM (SK-MEL-28): 101% | growth at 100 µM (MDA-MB-231): 19% | growth at 100 µM (SN12C): 7% | growth at 10 µM (Hs-578T): 13% | growth at 0.01 µM (BT-549 [5]): 97% | growth at 100 µM (NCI-H522): -62% | growth at 1 µM (RPMI-8226 [6]): 27% | growth at 10 µM (SK-MEL-5): -89% | growth at 1 µM (T47D): 78% | IC50 (MCF7): 0.81 µM | growth at 100 µM (SF-539): -92% | growth at 100 µM (MDA-MB-468): -78% | growth at 10 µM (UACC-257 [7]): -65% | growth at 0.1 µM (NCI-H226): 102% | growth at 0.01 µM (A498 [8]): 98% | growth at 10 µM (IGROV-1): -47% | growth at 0.1 µM (DU-145): 101% | growth at 1 µM (OVCAR-5): 95% | LC50 (OVCAR-8): > 100 µM | TGI (OVCAR-8): 8.26 µM | growth at 10 µM (SR): 3% | growth at 0.1 µM (OVCAR-3): 101% | growth at 100 µM (SNB-19): -6% | growth at 0.1 µM (HOP-62): 102%

COc1cc(C(=O)/C=C/c2cc(-c3ccc4c(c3)OCO4)n[nH]2)cc(OC)c1OC
GI50 (TK-10): 2.9 µM | LC50 (TK-10): 25.6 µM | TGI (TK-10): 7.17 µM | growth at 10 µM (CCRF-CEM): -26% | growth at 0.01 µM (U-251): 98% | growth at 100 µM (BT-549 [1]): -77% | growth at 100 µM (RPMI-8226 [2]): -47% | GI50 (NCI-H23): 2.9 µM | TGI (NCI-H23): 10.3 µM | CC50 (NCI-H23): 40.3 µM | growth at 1 µM (A498 [3]): 79% | growth at 0.01 µM (HT-29): 103% | growth at 0.1 µM (HCC 2998): 100% | growth at 10 µM (NCI-H460): -67% | growth at 1 µM (MOLT-4): 94% | growth at 0.01 µM (UACC-257 [4]): 98% | growth at 1 µM (SK-MEL-28): 92% | growth at 100 µM (MDA-MB-231): -97% | growth at 100 µM (SN12C): -96% | growth at 10 µM (Hs-578T): 10% | growth at 0.01 µM (BT-549 [5]): 97% | growth at 100 µM (NCI-H522): -94% | growth at 1 µM (RPMI-8226 [6]): 32% | growth at 10 µM (SK-MEL-5): 14% | growth at 1 µM (T47D): 68% | IC50 (MCF7): 0.85 µM | growth at 100 µM (SF-539): -85% | growth at 100 µM (MDA-MB-468): -80% | growth at 10 µM (UACC-257 [7]): -2% | growth at 0.1 µM (NCI-H226): 93% | growth at 0.01 µM (A498 [8]): 89% | growth at 10 µM (IGROV-1): -26% | growth at 0.1 µM (DU-145): 99% | growth at 1 µM (OVCAR-5): 87% | GI50 (OVCAR-8): 2.35 µM | LC50 (OVCAR-8): 24.8 µM | TGI (OVCAR-8): 6.37 µM | growth at 10 µM (SR): -19% | growth at 0.1 µM (OVCAR-3): 100% | growth at 100 µM (SNB-19): -97% | growth at 0.1 µM (HOP-62): 95%
